Here are results for six compounds from patent US8431563B2 (priority 2010, dated 2013).

As usually defined, the EC50 is the midpoint of the concentration-response curve. For orientation: IC50 means the concentration that gives 50% inhibition.

Assay [1] deals with T1, GK-GKRP (Homo sapiens, UniProt Q14397).
T1 sequence (Q14397 1-625): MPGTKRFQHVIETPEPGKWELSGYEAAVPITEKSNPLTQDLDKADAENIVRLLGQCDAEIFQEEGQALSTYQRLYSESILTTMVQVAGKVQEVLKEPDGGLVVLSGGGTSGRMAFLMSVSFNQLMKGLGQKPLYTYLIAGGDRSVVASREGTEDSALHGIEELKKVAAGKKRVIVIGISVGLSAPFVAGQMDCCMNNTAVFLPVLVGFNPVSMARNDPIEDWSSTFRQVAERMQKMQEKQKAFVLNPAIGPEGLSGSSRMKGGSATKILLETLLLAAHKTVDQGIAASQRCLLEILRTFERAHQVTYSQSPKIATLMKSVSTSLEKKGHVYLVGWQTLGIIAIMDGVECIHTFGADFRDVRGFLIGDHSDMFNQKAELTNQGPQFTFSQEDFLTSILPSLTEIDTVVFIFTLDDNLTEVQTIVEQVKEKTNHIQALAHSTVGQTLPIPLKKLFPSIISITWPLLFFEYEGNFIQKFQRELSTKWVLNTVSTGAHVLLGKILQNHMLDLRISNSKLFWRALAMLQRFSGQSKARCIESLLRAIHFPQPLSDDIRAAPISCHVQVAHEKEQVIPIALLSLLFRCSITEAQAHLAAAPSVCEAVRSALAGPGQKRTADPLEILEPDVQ
The experiment in a line: biochemical.

The target of assay [2] is T1, GK-GKRP. Nature of the assay: biochemical. To be noted: GK-GKRP IC50 (Binding).

Turning to `Nc1ccc(S(=O)(=O)N2CCN(c3ncc(C(O)(C(F)(F)F)C(F)(F)F)cn3)C(C#CC3CC3)C2)cn1` (stereo not drawn) [Example 246, 2-(2-(4-((6-amino-3-pyridinyl)sulfonyl)-2-(cyclopropylethynyl)-1-piperazinyl)-5-pyrimidinyl)-1,1,1,3,3,3-hexafluoro-2-propanol], the EC50 in assay [1] is 314 nM. Besides, in assay [2], the IC50 amounted to 191 nM.

Take `CC(C)N1C(=O)N(C[C@H]2CN(S(=O)(=O)c3cccs3)CCN2c2ccc(C(C)(O)C(F)(F)F)cc2)C(C)(C)C1=O` (mixture of isomers) [Example 242, 5,5-dimethyl-3-(1-methylethyl)-1-(((2S)-4-(2-thiophenylsulfonyl)-1-(4-(2,2,2-trifluoro-1-hydroxy-1-methylethyl)phenyl)-2-piperazinyl)methyl)-2,4-imidazolidinedione]: the EC50 in assay [1] was 29 nM. Also, in assay [2], the IC50 amounted to 19 nM.

For `Cc1cc(S(=O)(=O)c2ccc(N)nc2)ccc1-c1ncc(C(O)(C(F)(F)F)C(F)(F)F)cn1` [Example 268, 2-(2-(4-((6-amino-3-pyridinyl)sulfonyl)-2-methylphenyl)-5-pyrimidinyl)-1,1,1,3,3,3-hexafluoro-2-propanol], the concentration for a half-maximal effect (EC50) in assay [1] amounted to 232 nM. The compound also yielded an IC50 in assay [2] of 103 nM.

Turning to `O=S(=O)(c1ccccc1)c1ccc(-c2ncc(C(O)(C(F)(F)F)C(F)(F)F)cn2)cc1` [Example 263, 1,1,1,3,3,3-hexafluoro-2-(2-(4-(phenylsulfonyl)phenyl)-5-pyrimidinyl)-2-propanol], the EC50 in assay [1] came to 478 nM. Further, in assay [2], the IC50 was 484 nM.

As for `CC(C)S(=O)(=O)NC[C@H]1CN(S(=O)(=O)c2cccs2)CCN1c1ccc(C(C)(O)C(F)(F)F)cc1` (mixture of isomers) [Example 237, N-(((2S)-4-(thiophen-2-ylsulfonyl)-1-(4-(1,1,1-trifluoro-2-hydroxypropan-2-yl)phenyl)piperazin-2-yl)methyl)propane-2-sulfonamide], it took 632 nM to reach a half-maximal effect in assay [1] (EC50). Further, the IC50 in assay [2] came out at 335 nM.

As to `CCC(C)S(=O)(=O)NC[C@H]1CN(S(=O)(=O)c2cccs2)CCN1c1ccc(C(C)(O)C(F)(F)F)cc1` (stereo partly drawn) [Example 238, N-(((2S)-4-(2-thiophenylsulfonyl)-1-(4-(2,2,2-trifluoro-1-hydroxy-1-methylethyl)phenyl)-2-piperazinyl)methyl)-2-butanesulfonamide], in assay [1], a half-maximal effect (EC50) was put at 270 nM. In assay [2], this compound returned an IC50 of 204 nM.
